{
  "source": "patent US8871772B2",
  "about": "“Therapeutic methods and compounds” (Ampio Pharmaceuticals, Inc., priority 2008, dated 2014)",
  "format_in_all_cases": "cell-based",
  "key": {"[1]": {"system": "AU565 cells", "experiment": "Cytotoxicity on confluent AU565 monolayers, cell titer assay", "description": "To determine whether the decrease in cell titer signal caused by Cpd. 5 was due to the inhibition of proliferation or to cytotoxicity, STTG and AU565 cells were seeded at 10,000 cells/well in 96-well plates and grown until a confluent monolayer was obtained. Under these conditions, the cells should no longer proliferate. The culture medium was IMDM supplemented with 10% FBS. After the cells reached confluence, the culture medium was removed by aspiration and replaced with fresh medium containing the test compounds (see Table 2 below). The cell cultures were incubated for an additional 24 hours in the presence of the added compounds and then the cell titer signal was assayed by adding 20 μl Promega cell titer aqueous one reagent to each well. The plates were incubated at 37° C. for an additional 2 hours to allow the colorimetric assay to develop, and the OD of each well was determined in a microplate reader using a 530 nm filter. The OD of wells containing cell titer reagent in culture medium with no cells was subtracted from the OD of all experimental readings.\n(§1) The % decrease of the total cell titer signal was determined using the following formula. ((Diluent OD−Experimental OD)/Diluent OD))×100. Data are presented in Table 2 as mean % decrease of cell titer signal of three separate experiments, plus or minus standard deviation. In the mean % decrease column, a positive number means a decrease in cell titer signal, while a negative number means an increase. The p values were calculated versus diluent controls.\nThis experiment was repeated, except using incubations of 18 hours, instead of 24 hours, in the presence of the compounds and 4 hours, instead of 2 hours, for color development."}, "[2]": {"system": "U-118 metastatic astrocytoma cell line", "experiment": "Proliferation of U-118 cancer cells, Promega cell titer assay", "description": "Assays were performed to determine the effect of Cpd. 5 on proliferation of an additional cancer cell line. This cell line was the U-118 metastatic astrocytoma cell line. It was obtained from ATCC.\nTo perform the assays, a 50 mM stock solution of Cpd. 5 was prepared in DMSO and frozen at −80° C. […] Controls containing equivalent amounts of DMSO to the 300 μM solution were mixed for comparative purposes. 100 μl of the resulting solutions were then added to 96 well culture plates in triplicate and placed in a 37° C. incubator with 5% CO2 to warm.\nCells were removed from passage flasks using trypsin and ethylenediaminetetracetic acid (EDTA) and counted using trypan blue to establish cell counts/ml and viability. For all experiments, viability of cells was greater than 95%. Solutions of 4,000 cells/100 μl were prepared in the medium from above, and 100 μl of the solutions were added to each well of the plates. The plates were placed back in the incubator and incubated with the compounds for 96 hours.\nFollowing incubation, cell proliferation was assayed by adding 20 μl Promega cell titer aqueous one reagent to each well. Promega cell titer reagent is a solution containing a tetrazolium dye that is reduced by living cells to a formazan dye, and this reduction is proportional to the number of living cells present in the well. The plates were incubated at 37° C. for an additional 4 hours to allow the colorimetric assay to develop, and the OD of each well was determined in a microplate reader using a 530 nm filter. The OD of wells containing cell titer reagent in culture medium with no cells was subtracted from the OD of all experimental readings.\nas §1, with “5” for “2”, “increase in cell titer signal.” for “increase.”\nThe above experiment was repeated using the U-118 cells at 3000 cells/well."}, "[3]": {"system": "Akt", "experiment": "Akt phosphorylation in WM-266-4 melanoma cells, CASE ELISA (S473)", "conditions": "IGF-1 stimulated; for inhibition at 50 µM: WM 266-4, WM-266-4, 50 μM", "description": "Assays were performed to determine the effect of Cpd. 5 (synthesis described in Example 1) on phosphorylation of Akt in WM-266-4, a metastatic melanoma cell line obtained from ATCC. The WM-266-4 cells were grown in 25 cm^2 flasks using IMDM medium (obtained from Lonza) supplemented with 10% fetal bovine serum (FBS, HyClone) and 1% penicillin/streptomycin solution (Lonza). Cells were removed from the flasks using trypsin/EDTA (Lonza) and counted using trypan blue to establish cell counts. Cells in the above supplemented IMDM medium were added to the wells of a 96-well plate (10,000 cells/well), and the plates were incubated at 37° C., 5% CO2, for 24 hours. After 24 hours, the medium was removed and replaced with medium not containing any serum (serum-free IMDM), and the plates were incubated at 37° C., 5% CO2, for an additional 24 hours.\nAfter this incubation, the test compounds were added to the plates as follows. A 20 mM stock solution of Cpd. 5 was prepared in DMSO and frozen at −80° C. Aliquots of the stock solution were removed and dilutions were made in serum-free IMDM medium. Final concentrations of Cpd. 5 were 10 μM and 50 μM. Controls containing equivalent amounts of DMSO as the two concentrations of Cpd. 5 (0.05% and 0.25%) were mixed for comparative purposes. The other control was the PI3 kinase inhibitor, LY294002 (obtained from Sigma), final concentration of 50 μM. 100 μl of each test compound solution were then added to 96 well culture plates in duplicate, and the plates were placed back into the incubator and incubated at 37° C., 5% CO2, for 1 hour.\nFollowing this incubation, 100 μl of serum-free IMDM containing either 0 or 400 ng/ml IGF-1 (obtained from Sigma), an Akt phosphorylation promoter, were added, and the plates incubated at 37° C., 5% CO2, for 1 more hour. At the end of this time, the cells were fixed immediately with 4% formaldehyde, refrigerated, and the extent of phosphorylation of Akt determined using the Akt Cellular Activation of Signaling ELISA (CASE™ Kit for AKT S473; SABiosciences, Frederick, Md.) following the manufacturer's protocols. The CASE™ Kit for AKT S473 quantifies the amount of activated (phosphorylated) Akt protein relative to total Akt protein. For further details of the CASE ELISA assay, see Example 6.\nThe results were calculated as follows. The treatment groups containing IGF-I/DMSO were subtracted from their respective IGF-1/DMSO only groups (positive control). This value was divided by the difference between the respective DMSO only group (negative control) and the respective positive control. This value represents the percent inhibition of Akt phosphorylation attributable to the inhibitor alone since the contribution of DMSO is subtracted out."}, "[4]": {"conditions": "confluent AU565, 50 μM, 18 hours"}, "[5]": {"conditions": "confluent AU565, 50 μM, 24 hours"}},
  "data": [
    {"compound": "O=c1cc(N2CCOCC2)oc2c(-c3ccccc3)cccc12", "note": "[LY294002, reference compound]", "values": [
      {"measurement": "MEAN % DECREASE of cell titer signal", "setting": "[1]; [4]", "result": 22.25, "unit": "%"},
      {"measurement": "MEAN % DECREASE of cell titer signal", "setting": "[1]; [5]", "result": 2.94, "unit": "%"},
      {"measurement": "MEAN % DECREASE of cell titer signal", "setting": "[2]; U-118, 3000 cells/well, 40 μM final", "result": 86.04, "unit": "%"},
      {"measurement": "MEAN % DECREASE of cell titer signal", "setting": "[2]; U-118, 4,000 cells/well, 20 μM final, 96 hours", "result": 19.75, "unit": "%"},
      {"measurement": "inhibition at 50 µM", "setting": "[3]; Homo sapiens", "result": 23.1, "unit": "%"}
    ]},
    {"compound": "COC(=O)C(c1ccc(-c2ccccc2)cc1)C1NC(=O)CNC1=O", "note": "(centres unmarked) [Cpd. 5, biphenyl-4-yl-(3,6-dioxo-piperazin-2-yl)-acetic acid methyl ester]", "values": [
      {"measurement": "MEAN % DECREASE of cell titer signal", "setting": "[1]; confluent AU565, 10 μM, 18 hours", "result": "−5.61", "unit": "%"},
      {"measurement": "MEAN % DECREASE of cell titer signal", "setting": "[1]; confluent AU565, 10 μM, 24 hours", "result": "−8.87", "unit": "%"},
      {"measurement": "MEAN % DECREASE of cell titer signal", "setting": "[1]; [4]", "result": "−9.73", "unit": "%"},
      {"measurement": "MEAN % DECREASE of cell titer signal", "setting": "[1]; [5]", "result": "−10.79", "unit": "%"},
      {"measurement": "MEAN % DECREASE of cell titer signal", "setting": "[1]; confluent AU565, 100 μM, 18 hours", "result": "−10.69", "unit": "%"},
      {"measurement": "MEAN % DECREASE of cell titer signal", "setting": "[1]; confluent AU565, 100 μM, 24 hours", "result": "−11.05", "unit": "%"},
      {"measurement": "MEAN % DECREASE of cell titer signal", "setting": "[2]; U-118, 3000 cells/well, 25 μM final", "result": "−25.28", "unit": "%"},
      {"measurement": "MEAN % DECREASE of cell titer signal", "setting": "[2]; U-118, 3000 cells/well, 37.5 μM final", "result": "−25.28", "unit": "%"},
      {"measurement": "MEAN % DECREASE of cell titer signal", "setting": "[2]; U-118, 3000 cells/well, 50 μM final", "result": "−15.63", "unit": "%"},
      {"measurement": "MEAN % DECREASE of cell titer signal", "setting": "[2]; U-118, 3000 cells/well, 75 μM final", "result": "−3.05", "unit": "%"},
      {"measurement": "MEAN % DECREASE of cell titer signal", "setting": "[2]; U-118, 3000 cells/well, 100 μM final", "result": 20.51, "unit": "%"},
      {"measurement": "MEAN % DECREASE of cell titer signal", "setting": "[2]; U-118, 3000 cells/well, 150 μM final", "result": 59.70, "unit": "%"},
      {"measurement": "MEAN % DECREASE of cell titer signal", "setting": "[2]; U-118, 4,000 cells/well, 25 μM final, 96 hours", "result": "−50.62", "unit": "%"},
      {"measurement": "MEAN % DECREASE of cell titer signal", "setting": "[2]; U-118, 4,000 cells/well, 37.5 μM final, 96 hours", "result": "−46.50", "unit": "%"},
      {"measurement": "MEAN % DECREASE of cell titer signal", "setting": "[2]; U-118, 4,000 cells/well, 50 μM final, 96 hours", "result": "−7.82", "unit": "%"},
      {"measurement": "MEAN % DECREASE of cell titer signal", "setting": "[2]; U-118, 4,000 cells/well, 75 μM final, 96 hours", "result": 4.11, "unit": "%"},
      {"measurement": "MEAN % DECREASE of cell titer signal", "setting": "[2]; U-118, 4,000 cells/well, 100 μM final, 96 hours", "result": 25.93, "unit": "%"},
      {"measurement": "MEAN % DECREASE of cell titer signal", "setting": "[2]; U-118, 4,000 cells/well, 150 μM final, 96 hours", "result": 65.84, "unit": "%"},
      {"measurement": "inhibition at 10 µM", "setting": "[3]; Homo sapiens, WM 266-4, WM-266-4, 10 μM", "result": 102, "unit": "%"},
      {"measurement": "inhibition at 50 µM", "setting": "[3]; Homo sapiens", "result": 47, "unit": "%"},
      {"measurement": "MEAN % INHIBITION OF Akt PHOSPHORYLATION", "setting": "[3]; WM-266-4, 50 μM, 50 µM", "result": 55.9, "unit": "%"}
    ]}
  ]
}
